These results are taken from patent publication US20260184675A1, “CHIRAL ISOMERIC SULFITE COMPOUND AND APPLICATION THEREOF” (Chengdu Hanova BioSciences Co., Ltd, priority 2024, published 2026).

For experiment [1], the system named is eggs of Aleyrodidae. Briefly: Effect on hatching of eggs of Aleyrodidae, leaf disc method. The format is in vivo. The settings on record: 10 ppm; for Hatching rate (%), Replicate 1 / Hatching rate (%), Replicate 2 / Hatching rate (%), Replicate 3 / Number of hatched larvae 5 days after insecticide delivery, Replicate 1 / Number of hatched larvae 5 days after insecticide delivery, Replicate 2 / Number of hatched larvae 5 days after insecticide delivery, Replicate 3: Aleyrodidae eggs; for Hatching rate (%), Replicate 1 / Hatching rate (%), Replicate 2 / Hatching rate (%), Replicate 3: 5 days after delivery; for Number of hatched larvae 5 days after insecticide delivery, Replicate 1 / Number of hatched larvae 5 days after insecticide delivery, Replicate 2 / Number of hatched larvae 5 days after insecticide delivery, Replicate 3: leaf disc. As to the method:
(§1) • (1) Preparation of leaf discs containing eggs: 20 female adult mites of Tetranychus cinnabarinus were transferred onto leaf discs of Vicia faba with a diameter of 2.0 cm (with wetted filter paper at the bottom), then covered it with a lidded culture dish and cultivated under moisturizing conditions, the adult mites were removed within 36 hours and microscopic examination and counting were performed on leaf discs containing eggs. • (2) Investigation of egg population base: Before pesticide soaking, a microscopic examination was conducted on the egg basic number of each leaf disc, with 2 replicates set for each treatment. • (3) Pesticide soaking treatment: The leaf butterflies loaded with mite eggs were soaked in clear water and sulfite compounds for 10 seconds, respectively, then taken out and cultivated under moisturizing conditions. Each treatment should be repeated for no less than 3 times. • (4) Cultivation and observation: The […] were cultivated under normal conditions. Five days after insecticide delivery, the hatching status of mite eggs was investigated. • Note: The temperature and humidity conditions of the constant temperature and humidity incubator after the treatment should be controlled so as to avoid excessive temperature differences, which may cause generation and dripping of condensate water in the culture dish, resulting in abnormal death of eggs due to soaking in water; it is also necessary to ensure sufficient strong ambient light, without directing irradiating the leaves. • (5) Survey of Results: The experimental materials of each treatment group were regularly hydrated and moisturized, and the hatching of eggs was observed. On the 7th day after insecticide delivery, the number of hatched eggs for each treatment was recorded, and the survey of results was recorded in the original notebook. According to the experimental requirements and characteristics of agents, the survey time can be shortened or extended.
(§2) • 1) Surveying and recording the number of hatched eggs for each treatment. • 2) Photographing and recording whether there was any pesticide damage to the leaf discs of Vicia faba. • 3) Recording the developmental status of experimental mite eggs, behavior status of nymph mites, including abnormal phenomena such as delayed or stopped development of mite eggs, difficulty in breaking hull for nymph mites, or painful struggles after hatching, etc. • (6) Calculation method: Based on the survey data, the prevention and control effect of each treatment was calculated according to the following formula, and the calculation results were kept to two decimal places.
This test adopted the method in Test Example 1 of technical section, mainly used leaf disc method to explore the inhibitory effect on hatching of eggs of Aleyrodidae by compounds 1-(S,S), 1-(S,R), 1-(R,R), 1-(R,S), 1′-(S,S), 1′-(S,R), 1′-(R,R), 1′-(R,S), compound 1, compound 1′, S-10, R-10, S-10′, R-10′, compound 10, compound 10′, compound 19-(S,S), 19-(S,R), 19-(R,R), 19-(R,S), 19′-(S,S), 19′-(S,R), 19′-(R,R), 19′-(R,S), compound 19, and compound 19′. The concentration of all compounds was 10 ppm.

Experiment [2] relates to eggs of Tetranychus urticae. Briefly: Effect on hatching of eggs of Tetranychus urticae, leaf disc method. The experiment is classed as in vivo. The settings on record: 5 ppm; for Hatching rate (%): 5 days after insecticide delivery. The protocol:
as §1, §2
This test adopted the method in Test Example 1 of technical section, mainly used leaf disc method to explore the inhibitory effect on hatching of eggs of Tetranychus urticae by compounds 1-(S,S), 1-(S,R), 1-(R,R), 1-(R,S), 1′-(S,S), 1′-(S,R), 1′-(R,R), 1′-(R,S), compound 1, compound 1′, S-10, R-10, S-10′, R-10′, compound 10, compound 10′, compound 19-(S,S), 19-(S,R), 19-(R,R), 19-(R,S), 19′-(S,S), 19′-(S,R), 19′-(R,R), 19′-(R,S), compound 19, and compound 19′. The concentration of all compounds was 5 ppm.

The mark [3] stands for this setting: Replicate 1, listed as 1-(R, R).
The mark [4] stands for this setting: Replicate 2, listed as 1-(R, R).
The mark [5] stands for this setting: Replicate 1, listed as 1-(R, S).
[6] abbreviates: Replicate 2, listed as 1-(R, S).
Where [7] appears, read: Replicate 1, listed as 1-(S, R).
[8] abbreviates: Replicate 2, listed as 1-(S, R).
Setting [9] is: Replicate 1, listed as 1-(S, S).
The mark [10] stands for this setting: Replicate 2, listed as 1-(S, S).
[11] abbreviates: Replicate 1, listed as 1′-(R, R).
Where [12] appears, read: Replicate 2, listed as 1′-(R, R).
[13] abbreviates: Replicate 1, listed as 1′-(R, S).
Setting [14] is: Replicate 2, listed as 1′-(R, S).

For the molecule `C[C@H](COS(=O)OCCF)Oc1ccc(Cl)cc1Cl` (stereo partly drawn) [1-(R,R)], the “inhibitory activity on the hatching of eggs of Aleyrodidae (in words)” value (from here on “inhibitory activity … of Aleyrodidae (in words)”) in experiment [1] is recorded as “strong inhibitory activities”. Also, in experiment [1] (listed as 1-(R, R)), the “Hatching rate (%), Replicate 1” value was 0.00%; the “Hatching rate (%), Replicate 2” value is reported as 0.00%; the “Hatching rate (%), Replicate 3” value is 0.00%; the “Number of hatched larvae 5 days after insecticide delivery, Replicate 1” value (“Number of hatched larvae 5 days … Replicate 1” below) is listed as 0. In addition, in experiment [1] (listed as 1-(R, R)), the “Number of hatched larvae 5 days after insecticide delivery, Replicate 2” value (“Number of hatched larvae 5 days … Replicate 2” below) is 0 and the “Number of hatched larvae 5 days after insecticide delivery, Replicate 3” value (“Number of hatched larvae 5 days … Replicate 3” below) is 0. Moreover, the “inhibitory activity on the hatching of eggs of Tetranychus urticae (in words)” value in experiment [2] is reported as “strong inhibitory activities”. For the same molecule, in experiment [2] (setting [3]), the “Hatching rate (%)” value came to 0.00% and the “Number of hatched larvae 5 days after insecticide delivery” value came to 0. Also, in experiment [2] (setting [4]), the “Hatching rate (%)” value was found to be 0.00% and the “Number of hatched larvae 5 days after insecticide delivery” value amounted to 0.
As for `C[C@H](COS(=O)OCCF)Oc1ccc(Cl)cc1Cl` (stereo partly drawn) [1-(R,S)], in experiment [1] (listed as 1-(R, S)), the “Hatching rate (%), Replicate 1” value worked out at 7.95%; the “Hatching rate (%), Replicate 2” value was found to be 7.41%; the “Hatching rate (%), Replicate 3” value is 7.44%; the “Number of hatched larvae 5 days … Replicate 1” value is recorded as 7. In experiment [1] (listed as 1-(R, S)), the “Number of hatched larvae 5 days … Replicate 2” value is 10 and the “Number of hatched larvae 5 days … Replicate 3” value was determined as 9. Further, in experiment [2] (setting [5]), the “Hatching rate (%)” value is reported as 14.10% and the “Number of hatched larvae 5 days after insecticide delivery” value came out at 11. Besides, in experiment [2] (setting [6]), the “Hatching rate (%)” value turned out to be 12.70% and the “Number of hatched larvae 5 days after insecticide delivery” value was determined as 88.
Consider `C[C@@H](COS(=O)OCCF)Oc1ccc(Cl)cc1Cl` (stereo partly drawn) [1-(S,R)], for which, in experiment [1] (listed as 1-(S, R)), the “Hatching rate (%), Replicate 1” value was determined as 9.65%; the “Hatching rate (%), Replicate 2” value came to 9.38%; the “Hatching rate (%), Replicate 3” value was 10.48%; the “Number of hatched larvae 5 days … Replicate 1” value was found to be 11. Further, in experiment [1] (listed as 1-(S, R)), the “Number of hatched larvae 5 days … Replicate 2” value came to 12 and the “Number of hatched larvae 5 days … Replicate 3” value worked out at 11. For the same molecule, in experiment [2] (setting [7]), the “Hatching rate (%)” value was found to be 10.87% and the “Number of hatched larvae 5 days after insecticide delivery” value is on record as 10. Moreover, in experiment [2] (setting [8]), the “Hatching rate (%)” value is 12.16% and the “Number of hatched larvae 5 days after insecticide delivery” value is given as 9.
With `C[C@@H](COS(=O)OCCF)Oc1ccc(Cl)cc1Cl` (stereo partly drawn) [1-(S,S)], in experiment [1], the “inhibitory activity … of Aleyrodidae (in words)” value is “strong inhibitory activities”. In addition, in experiment [1] (listed as 1-(S, S)), the “Hatching rate (%), Replicate 1” value worked out at 0.00%; the “Hatching rate (%), Replicate 2” value was found to be 0.00%; the “Hatching rate (%), Replicate 3” value stood at 0.00%; the “Number of hatched larvae 5 days … Replicate 1” value was found to be 0. Also, in experiment [1] (listed as 1-(S, S)), the “Number of hatched larvae 5 days … Replicate 2” value was 0 and the “Number of hatched larvae 5 days … Replicate 3” value was determined as 0. Also, the “inhibitory activity on the hatching of eggs of Tetranychus urticae (in words)” value in experiment [2] is on record as “strong inhibitory activities”. In addition, in experiment [2] (setting [9]), the “Hatching rate (%)” value came to 0.00% and the “Number of hatched larvae 5 days after insecticide delivery” value is listed as 0. In experiment [2] (setting [10]), the “Hatching rate (%)” value is 0.00% and the “Number of hatched larvae 5 days after insecticide delivery” value was 0.
As for `CC(COc1ccc(Cl)cc1Cl)OS(=O)OCCF` [1′-(R,R)], in experiment [1] (listed as 1′-(R, R)), the “Hatching rate (%), Replicate 1” value turned out to be 13.95%; the “Hatching rate (%), Replicate 2” value turned out to be 15.38%; the “Hatching rate (%), Replicate 3” value is 13.21%; the “Number of hatched larvae 5 days … Replicate 1” value is reported as 18. For the same molecule, in experiment [1] (listed as 1′-(R, R)), the “Number of hatched larvae 5 days … Replicate 2” value came out at 14 and the “Number of hatched larvae 5 days … Replicate 3” value came out at 14. Further, in experiment [2] (setting [11]), the “Hatching rate (%)” value is listed as 17.91% and the “Number of hatched larvae 5 days after insecticide delivery” value turned out to be 12. In experiment [2] (setting [12]), the “Hatching rate (%)” value is on record as 19.28% and the “Number of hatched larvae 5 days after insecticide delivery” value was found to be 16.
For the molecule `CC(COc1ccc(Cl)cc1Cl)OS(=O)OCCF` [1′-(R,S)], the “inhibitory activity … of Aleyrodidae (in words)” value in experiment [1] was “strong inhibitory activities”. In addition, in experiment [1] (listed as 1′-(R, S)), the “Hatching rate (%), Replicate 1” value was 0.00%; the “Hatching rate (%), Replicate 2” value worked out at 0.00%; the “Hatching rate (%), Replicate 3” value was 0.00%; the “Number of hatched larvae 5 days … Replicate 1” value turned out to be 0. In addition, in experiment [1] (listed as 1′-(R, S)), the “Number of hatched larvae 5 days … Replicate 2” value was determined as 0 and the “Number of hatched larvae 5 days … Replicate 3” value was 0. Besides, the “inhibitory activity on the hatching of eggs of Tetranychus urticae (in words)” value in experiment [2] is “strong inhibitory activities”. For the same molecule, in experiment [2] (setting [13]), the “Hatching rate (%)” value amounted to 0.00% and the “Number of hatched larvae 5 days after insecticide delivery” value turned out to be 0. Further, in experiment [2] (setting [14]), the “Hatching rate (%)” value is reported as 0.00% and the “Number of hatched larvae 5 days after insecticide delivery” value is 0.
